Where a name gives a salt, the structure may show the parent alone.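 Where inhibition never reached the appropriate level, the endpoint shown equals the highest concentration tested. Otherwise, values were interpolated linearly from a five-concentration, 48-hour dose response in 96-well plates. Abbreviation: GI50, concentration required for 50% inhibition of growth.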 Active and inactive are the calls of the source. Cut-off read from the data, not from the text of the source: active = GI50 up to about 1.1 µM and inactive = higher.
How the values were obtained:
Assay in all cases: NCI tumour cell line growth inhibition, 48 h
[1] = system: NCI-H226
[2] = system: U-251
[3] = system: MCF7
[4] = system: EKVX
[5] = system: KM12
[6] = system: HCT-15
[7] = system: HL-60
[8] = system: DU-145
[9] = system: RXF 393
[10] = system: HCC 2998
[11] = system: OVCAR-8
[12] = system: HCT-116
[13] = system: K562
[14] = system: HOP-62
[15] = system: SK-MEL-2
[16] = system: MDA-MB-435
[17] = system: ACHN
[18] = system: TK-10
[19] = system: SNB-19
[20] = system: NCI-H23
[21] = system: Hs-578T
[22] = system: SK-MEL-5
[23] = system: OVCAR-3
[24] = system: RPMI-8226
[25] = system: M14
[26] = system: COLO 205
[27] = system: UACC-62
[28] = system: MOLT-4
[29] = system: MDA-MB-231
[30] = system: SW-620
[31] = system: HT-29
[32] = system: 786-0
[33] = system: MDA-N
[34] = system: SF-539
[35] = system: PC-3
[36] = system: OVCAR-4
[37] = system: Malme-3M
[38] = system: A498
[39] = system: SR
[40] = system: SN12C
[41] = system: SK-MEL-28
[42] = system: HOP-92
[43] = system: NCI-H522
[44] = system: T47D
[45] = system: UO-31
[46] = system: SF-268
[47] = system: CCRF-CEM
[48] = system: A549
[49] = system: OVCAR-5
[50] = system: CAKI-1
[51] = system: UACC-257
[52] = system: IGROV-1
[53] = system: LOX IMVI
[54] = system: NCI/ADR-RES
[55] = system: NCI-H460

COC(=O)c1onc(C2OC(C)(C)OC2C(O)COC(c2ccccc2)(c2ccccc2)c2ccccc2)c1C(=O)OC (configuration not stated)
GI50 [1]: > 100 µM (inactive)
GI50 [2]: > 100 µM (inactive)
GI50 [3]: > 100 µM (inactive)
GI50 [4]: 41.9 µM (inactive)
GI50 [5]: > 100 µM (inactive)
GI50 [6]: > 100 µM
GI50 [7]: > 100 µM (inactive)
GI50 [8]: > 100 µM (inactive)
GI50 [9]: > 100 µM (inactive)
GI50 [10]: > 100 µM (inactive)
GI50 [11]: > 100 µM (inactive)
GI50 [12]: > 100 µM (inactive)
GI50 [13]: 72.8 µM (inactive)
GI50 [14]: > 100 µM (inactive)
GI50 [15]: > 100 µM (inactive)
GI50 [16]: 89.5 µM (inactive)
GI50 [17]: > 100 µM (inactive)
GI50 [18]: > 100 µM (inactive)
GI50 [19]: > 100 µM (inactive)
GI50 [20]: 72.3 µM (inactive)
GI50 [21]: > 100 µM (inactive)
GI50 [22]: > 100 µM (inactive)
GI50 [23]: 87.5 µM (inactive)
GI50 [24]: > 100 µM (inactive)
GI50 [25]: > 100 µM (inactive)
GI50 [26]: > 100 µM (inactive)
GI50 [27]: 43.6 µM (inactive)
GI50 [28]: 29.4 µM (inactive)
GI50 [29]: 71.8 µM (inactive)
GI50 [30]: > 100 µM (inactive)
GI50 [31]: > 100 µM (inactive)
GI50 [32]: > 100 µM (inactive)
GI50 [33]: > 100 µM (inactive)
GI50 [34]: > 100 µM (inactive)
GI50 [35]: 44.7 µM (inactive)
GI50 [36]: > 100 µM (inactive)
GI50 [37]: > 100 µM (inactive)
GI50 [38]: > 100 µM (inactive)
GI50 [39]: 84.3 µM (inactive)
GI50 [40]: > 100 µM (inactive)
GI50 [41]: > 100 µM (inactive)
GI50 [42]: > 100 µM (inactive)
GI50 [43]: 65.8 µM (inactive)
GI50 [44]: > 100 µM (inactive)
GI50 [45]: > 100 µM (inactive)
GI50 [46]: > 100 µM (inactive)
GI50 [47]: > 100 µM (inactive)
GI50 [48]: > 100 µM (inactive)
GI50 [49]: > 100 µM (inactive)

CN(C)CCOC(c1ccccc1)c1ccccc1 [DIPHENHYDRAMINE HYDROCHLORIDE]
GI50 [1]: > 100 µM (inactive)
GI50 [50]: > 100 µM (inactive)
GI50 [3]: > 100 µM (inactive)
GI50 [51]: > 100 µM (inactive)
GI50 [4]: > 100 µM (inactive)
GI50 [5]: > 100 µM (inactive)
GI50 [6]: > 100 µM
GI50 [52]: > 100 µM (inactive)
GI50 [7]: > 100 µM (inactive)
GI50 [8]: > 100 µM (inactive)
GI50 [10]: > 100 µM (inactive)
GI50 [11]: > 100 µM (inactive)
GI50 [12]: > 100 µM (inactive)
GI50 [13]: > 100 µM (inactive)
GI50 [53]: > 100 µM (inactive)
GI50 [14]: > 100 µM (inactive)
GI50 [15]: 72.4 µM (inactive)
GI50 [16]: > 100 µM (inactive)
GI50 [17]: > 100 µM (inactive)
GI50 [18]: > 100 µM (inactive)
GI50 [20]: > 100 µM (inactive)
GI50 [21]: 66.7 µM (inactive)
GI50 [22]: > 100 µM (inactive)
GI50 [23]: > 100 µM (inactive)
GI50 [24]: 84.3 µM (inactive)
GI50 [25]: 51.2 µM (inactive)
GI50 [26]: > 100 µM (inactive)
GI50 [28]: > 100 µM (inactive)
GI50 [54]: > 100 µM (inactive)
GI50 [29]: > 100 µM (inactive)
GI50 [30]: > 100 µM (inactive)
GI50 [31]: > 100 µM (inactive)
GI50 [32]: > 100 µM (inactive)
GI50 [55]: > 100 µM (inactive)
GI50 [33]: > 100 µM (inactive)
GI50 [35]: > 100 µM (inactive)
GI50 [36]: > 100 µM (inactive)
GI50 [37]: > 100 µM (inactive)
GI50 [39]: 38.5 µM (inactive)
GI50 [40]: > 100 µM (inactive)
GI50 [41]: > 100 µM (inactive)
GI50 [42]: 25 µM (inactive)
GI50 [43]: > 100 µM (inactive)
GI50 [44]: > 100 µM (inactive)
GI50 [45]: > 100 µM (inactive)
GI50 [47]: > 100 µM (inactive)
GI50 [48]: > 100 µM (inactive)
GI50 [49]: > 100 µM (inactive)
